Earlier results on 2 compounds are cited in patent US9873913B2, “Mutation testing” (Roche Molecular Systems, Inc., priority 2013, dated 2018).

This data set has as its system non-small cell lung cancer (NSCLC) patients. The conditions noted are these: relatively small subset of NSCLC patients after chemotherapy.

As to `C#Cc1cccc(Nc2ncnc3cc(OCCOC)c(OCCOC)cc23)c1` [erlotinib], the “effect on survival (in words)” value was “prolong survival”.

As to `COc1cc2ncnc(Nc3ccc(F)c(Cl)c3)c2cc1OCCCN1CCOCC1` [gefitinib], the “effect on survival (in words)” value is listed as “prolong survival”.
